Assay [1] is filed under the species Gallus gallus. Nature of the assay: Inhibition of chicken liver NAD kinase assessed as residual activity relative to control.
Assay [2] is described as follows: Inhibition of Thermoanaerobacter brockii ADH by Michaelis constant analysis.
Assay [3] in a line: Inhibition of yeast ADH by Michaelis constant analysis. Set-up: species or system Saccharomyces cerevisiae.
A short description of assay [4]: Inhibition of pig heart LDH by Michaelis constant analysis. Set-up: species or system Sus scrofa.
Assay [5] is described as follows: Inhibition of pig heart MDH by Michaelis constant analysis. Set-up: species or system Sus scrofa.
Assay [6] in a line: Inhibition of Leuconostoc mesenteroides D-LDH by Michaelis constant analysis.

From ChEMBL document CHEMBL3627658, “Novel concept of enzyme selective nicotinamide adenine dinucleotide (NAD)-modified inhibitors based on enzyme taxonomy from the diphosphate conformation of NAD” (Bioorg Med Chem Lett, 2015) come the findings set out here.

Molecules are shown by their SMILES.

Take `NC(=O)c1csc([C@@H]2O[C@H](COC(=O)[C@@H]3CCCC[C@H]3C(=O)OC[C@H]3O[C@@H](n4cnc5c(N)ncnc54)[C@H](O)[C@@H]3O)[C@@H](O)[C@H]2O)n1`: in assay [1], the Activity came to 81%. The Ki was found to be 0.71 mM in assay [2]; 0.62 mM in assay [3]; 0.8 mM in assay [4]; 0.7 mM in assay [5]; 10 mM in assay [6].

As for `NC(=O)c1csc([C@@H]2O[C@H](COC(=O)[C@H]3CCCC[C@@H]3C(=O)OC[C@H]3O[C@@H](n4cnc5c(N)ncnc54)[C@H](O)[C@@H]3O)[C@@H](O)[C@H]2O)n1`, the Activity in assay [1] is 60%. In addition, the Ki in assay [2] came out at 7.1 mM; in assay [3], 2.6 mM; in assay [4] it was 3.9 mM; in assay [5] it was 3.3 mM; in assay [6], 24 mM.

Turning to `NC(=O)c1csc([C@@H]2O[C@H](COC(=O)CCC(=O)OC[C@H]3O[C@@H](n4cnc5c(N)ncnc54)[C@H](O)[C@@H]3O)[C@@H](O)[C@H]2O)n1`, the Activity in assay [1] is 64%. The Ki in assay [2] worked out at 7.2 mM; in assay [3], 3.6 mM; in assay [4], 2.7 mM; in assay [5] it was 1.8 mM; in assay [6] it was 20 mM.

For orientation: Ki means the equilibrium dissociation constant of an inhibitor or competing ligand from its target.
